For 87 molecules, AC50 results are on record in PubChem BioAssay AID463204 (Broad Institute, 2010).

Each structure is given as a SMILES string. Calls of active or inactive are those of the source.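 Rule for the calls: active = AC50 no more than ten times the top concentration tested, that is within one log above it; inconclusive = flat curve fit with activity between 30% and 70%, or invalid poor fit; inactive = AC50 beyond ten times the top tested dose.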

This test has as its system S. cerevisiae Mot1-301 ts growth rescue, BacTiter-Glo ATP luminescence. Kind of test: growth rescue of Mot1-301 ts yeast, confirmation, SUMOylation pathway inhibitor project, whole organism, S. cerevisiae, Mot1-301 ts mutant, luminescence, dose retest (AID 463204).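 Note: growth at restrictive 38.5 degrees C of Mot1-301 OY566 strain; actives raise luminescence by restoring growth of the ts mutant at high temperature.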
With `O=C(CN1C(=O)NC2(CCCC2)C1=O)Nc1nc2ccccc2[nH]1`, the AC50 (as a rule, the concentration giving half of the maximal activity seen) was > 42 µM (inactive).

With `CN=C(Nc1cccnc1)c1ccccc1`, the AC50 is > 42 µM (inactive).

Consider `O=C(CSc1nnc(-c2ccc(Br)cc2)o1)Nc1cccc2ccccc12`, for which the AC50 was > 42 µM (inactive).

Consider `O=C(Cc1ccc(F)cc1)Nc1nc(-c2ccc(F)cc2)cs1`, for which the AC50 is > 42 µM (inactive). Turning to `O=C(Cc1cccs1)Nc1cccc(-c2nnc(-c3ccco3)o2)c1`, the AC50 is > 42 µM (inactive). Then `Cc1ccc(C(=O)N/C(=C/c2ccccc2)C(=O)NCC2CCCO2)cc1` (configuration not stated), with > 42 µM (inactive); and `COc1ccc(CNS(=O)(=O)c2ccc3c(c2)CCN3C(=O)C2CCC2)cc1`, with > 42 µM (inactive). The value for `Cn1c(=O)c2c(ncn2CC(=O)OCC(=O)Nc2ccc(Cl)cc2)n(C)c1=O` was > 42 µM (inactive). As to `CC12CC3(C)CC(C)(C1)CC(C(=O)NC(=S)N1CCCC1)(C2)C3`, the AC50 was > 42 µM (inactive).

As for `O=C1NC(=O)N(Cc2ccccc2)C1=O`, the AC50 was > 42 µM (inactive).

`CC(C)(C)NC(=O)C1Cc2ccccc2CN1S(=O)(=O)c1ccc(F)cc1` (configuration not stated): the AC50 was > 42 µM (inactive). The value for `O=C(NCCc1c[nH]c2ccccc12)c1cc(S(=O)(=O)N2CCCCC2)ccc1N1CCOCC1` was > 42 µM (inactive). With `Cc1ccc2nc(N/N=C/c3ccccc3F)nc(-c3ccccc3)c2c1`, the AC50 was > 42 µM (inactive).

Take `CN(C)c1ccc(NC(=O)CSc2nc(N)c(C(=O)Nc3ccc(N(C)C)cc3)s2)cc1`: the AC50 is > 42 µM (inactive). Take `CCN1CCCC1CNC(=O)Cn1cnc2ccc(S(=O)(=O)N3CCC(C)CC3)cc2c1=O` (configuration not stated): the AC50 is > 42 µM (inactive). The value for `Cc1ccc(CNC(=O)CCNS(=O)(=O)c2cccs2)cc1` was > 42 µM (inactive); that for `CC1(C)CC(=O)C2=C(C1)OC(N)=C(C#N)C21C(=O)N(CN2CCOCC2)c2ccccc21` (configuration not stated) was > 42 µM (inactive); that for `COC(=O)c1ccccc1SC(CC(=O)c1ccccc1)c1ccc(F)cc1` (configuration not stated) was > 42 µM (inactive).

Consider `CCCCc1n[nH]c(=S)n1Cc1ccc(C)cc1`, for which the AC50 was > 42 µM (inactive). Then `Cc1ccc(NC(=O)CCS(=O)(=O)c2ccc3nc(C)sc3c2)cc1`, with > 42 µM (inactive); and `N#C/C(=N\Nc1cccc(F)c1)C(=N)N1CCCCCC1`, with > 42 µM (inactive); and `Cc1c(Cl)cccc1NC(=S)NCCCN(C)C`, with > 42 µM (inactive).

`Cc1ccc(C(C(=O)Nc2ccc3c(c2)OCO3)N(C)C(=O)/C=C\c2ccc3c(c2)OCO3)cc1` (configuration not stated): the AC50 was > 42 µM (inactive). Turning to `O=[N+]([O-])c1nn(-c2ccc(Cl)cc2)n(O)c1=NCc1ccccc1Cl`, the AC50 was 24 µM. The value for `O=C(Nc1nnc(COc2ccc(F)cc2)s1)c1cccs1` was > 42 µM (inactive); that for `N#CCC(=O)N/N=C/c1ccc(OS(=O)(=O)c2ccccc2)cc1` was > 42 µM (inactive); that for `OC1CN=C2CCCc3c2n(c2ccc(Cl)cc32)C1` (configuration not stated) was > 42 µM (inactive). Consider `CC(=O)OCC(OC(C)=O)C(OC(C)=O)C(OC(C)=O)C(=O)Nc1ccccc1` (configuration not stated), for which the AC50 is > 42 µM (inactive).

As for `CCOCCCNCc1ccc(OCc2ccc(F)cc2)c(OC)c1`, the AC50 was > 42 µM (inactive). Then `COC(=O)c1ccc2[nH]c(C(C)(C)O)c(C)c2c1`, with > 42 µM (inactive).

Consider `O=[N+]([O-])c1cc([N+](=O)[O-])c2cc3ccccc3nc2c1`, for which the AC50 is 2.63 µM. Then `N#C/C(=C\c1ccc(O)c(O)c1)C(=O)Nc1ccccc1`, with > 42 µM (inactive); and `C/C=C\C=C/C(=O)Nc1cccc(C2=NOC3(C2)C[C@@H](C(N)=O)N(C(=O)c2ccccc2)C3)c1` (some centres not stated), with > 42 µM (inactive); and `CC1CC(c2ccccc2)NS(=O)(=O)O1` (configuration not stated), with > 42 µM (inactive).

In the case of `CCOC(=O)CNC(=O)c1c(C)nn(C)c1Cl`, the AC50 was > 42 µM (inactive). Then `CN(C)CCN(Cc1ccc(Cl)cc1)c1ccccn1`, with > 42 µM (inactive). The value for `Cc1c(C(=O)N2CCOCC2)c(S(=O)(=O)Nc2cccc(Br)c2)c(C)n1C` was > 42 µM (inactive).

In the case of `Cc1ccc(S(=O)(=O)NCc2ccc(C(=O)N3CCN(c4ccccn4)CC3)cc2)cc1`, the AC50 was > 42 µM (inactive). For `CCCSc1nnc(NC(=O)CSc2sc3c(O)cc(=O)[nH]c3c2C#N)s1`, the AC50 is > 42 µM (inactive). The value for `CCOC(=O)N1CCN(C(=O)c2ccc(CS(=O)(=O)c3c(Cl)cccc3Cl)o2)CC1` was > 42 µM (inactive); that for `CCOc1ccc(NC(=O)CNc2ccc(C)cc2Cl)cc1` was > 42 µM (inactive). For `Cc1cccc(C)c1NS(=O)(=O)c1ccc(OCCNS(C)(=O)=O)cc1`, the AC50 is > 42 µM (inactive). Then `COc1cccc(CN(C)C(=O)C2CCC(=O)N(Cc3cccc(F)c3)C2)c1` (configuration not stated), with > 42 µM (inactive); and `O=C(O)c1cccc(NC(=O)c2cccc(S(=O)(=O)Nc3cccc([N+](=O)[O-])c3)c2)c1`, with > 42 µM (inactive); and `Cc1nc(-c2ccc(Cl)cc2)sc1C1(C)CC(c2c(Cl)cccc2Cl)=NO1` (configuration not stated), with > 42 µM (inactive).

For the molecule `COc1ccccc1NC(=O)CSc1nc(O)c(Cc2ccccc2)c(=O)[nH]1`, the AC50 was > 42 µM (inactive). The value for `N#CC(C#N)=C1C=CC=CN1/C(=C\c1ccccc1Cl)C(=O)c1ccccc1` was 2.03 µM; that for `O=C(COc1cccnc1[N+](=O)[O-])Nc1ccc2c(c1)CCC2` was > 21 µM (inactive).

Regarding `COC(=O)c1ccc(CSc2nc3ccccc3c(=O)n2CC(C)C)o1`, the AC50 is > 42 µM (inactive). Then `Clc1ccc(CN(Cc2ccccc2)C(c2cccs2)c2nnnn2C2CCCC2)cc1` (configuration not stated), with > 42 µM (inactive); and `COc1ccc(CN2C(=O)C(=O)N(CC(N)=O)C2=O)cc1`, with > 42 µM (inactive).

Consider `CCCNc1nc2ccccc2c(=O)[nH]1`, for which the AC50 was > 42 µM (inactive).

Take `COc1ccc(C2C(C(=O)Nc3cc(OC)c(OC)c(OC)c3)c3ccccc3C(=O)N2C)cc1` (configuration not stated): the AC50 was > 42 µM (inactive). The value for `Cc1[nH]oc(=O)c1N=Nc1ccccc1` was 30.6 µM; that for `CCOC(=O)C1CCCN(C(=O)c2cc(-c3ccc(F)cc3)nc3ccccc23)C1` (configuration not stated) was > 42 µM (inactive); that for `Cc1nc(C)n(CC(=O)N2CCCC(C(=O)c3cccc4ccccc34)C2)n1` (configuration not stated) was > 42 µM (inactive).

As for `COc1ccc(S(=O)(=O)N2CCCOC2CNC(=O)C(=O)NCCCN2CCOCC2)cc1C` (configuration not stated), the AC50 was > 42 µM (inactive). Then `Oc1cccc2ccc(/C=C/c3ccccc3Br)nc12`, with > 42 µM (inactive).

`CCc1c(C)c2ccc(OCC(=O)OC(C)C)c(C)c2oc1=O`: the AC50 was > 42 µM (inactive). The value for `O=C(O)CCC(=O)N1N=C(c2c(-c3ccccc3)c3cc(Cl)ccc3[nH]c2=O)CC1c1ccco1` (configuration not stated) was > 42 µM (inactive); that for `Cc1noc(C)c1S(=O)(=O)N1CCCC(C(=O)NCC2CCCO2)C1` (configuration not stated) was > 42 µM (inactive).

With `CC(C)C(NC(=O)c1ccccc1)C(=O)NCC(c1ccccc1)N(C)C` (configuration not stated), the AC50 is > 42 µM (inactive). Then `COc1ccc(N2CCN(C(=O)C3CCCN(S(=O)(=O)c4ccc5c(c4)oc(=O)n5C)C3)CC2)cc1` (configuration not stated), with > 21 µM (inactive). Regarding `O=C1NC2(CCCCO2)CO1` (configuration not stated), the AC50 is > 42 µM (inactive). Consider `O=C1CN(C(=O)COC(=O)CCNS(=O)(=O)c2ccc(Cl)cc2)c2ccccc2N1`, for which the AC50 is > 42 µM (inactive). Then `CCOC(=O)Cn1c(=O)n(Cc2ccco2)c(=O)c2ccc(C(=O)NCCc3ccccc3)cc21`, with > 42 µM (inactive); and `O=C(CCc1ccccc1)NNC(=S)Nc1ccc(F)cc1`, with > 42 µM (inactive); and `CCN(CC)c1nc2c(c(=O)[nH]c(=O)n2C)n1CCOc1ccccc1`, with > 42 µM (inactive). Then `CCn1cc(CCCC(=O)NCc2ccccc2OC)c2ccccc21`, with > 42 µM (inactive). The value for `CN(C)CC/C=C1/c2cc(F)ccc2Sc2ccc(Cl)cc21` was > 42 µM (inactive); that for `CCOC(=O)C1(Cc2cccc(Cl)c2)CCCN(C(=O)CCOC)C1` (configuration not stated) was > 42 µM (inactive); that for `COCCn1c(=O)[nH]c(=O)c2cc(C(=O)c3cc(Cl)ccc3O)cnc21` was > 42 µM (inactive). For `COc1ccc(-c2csc(Nc3cc(C)ccn3)n2)cc1C`, the AC50 was > 42 µM (inactive). Regarding `COc1ccc(NC(=O)CN(C)C(=O)/C=C/c2cn(-c3ccccc3)nc2-c2ccc(F)cc2)cc1`, the AC50 is > 42 µM (inactive). `O=C1c2cc(N3CCCC3)c([N+](=O)[O-])cc2C(=O)N1c1ccccc1`: the AC50 is > 42 µM (inactive). As to `C=CCNC(=O)c1cc(-c2cccnc2)nc2ccccc12`, the AC50 is > 42 µM (inactive). Turning to `CCOc1ncccc1-c1nc(-c2cccs2)no1`, the AC50 was > 42 µM (inactive). In the case of `O=C(Nc1cccnc1Cl)c1cc2ccccc2o1`, the AC50 is > 42 µM (inactive). Then `CC(C)C(NC(=S)Nc1ccccc1)C(=O)O` (configuration not stated), with > 42 µM (inactive); and `CCN(CC)CCNC(=O)CCn1c(=S)[nH]c2cc3c(cc2c1=O)OCO3`, with > 110 µM (inactive). With `Cc1csc(=O)n1CC(=O)OCC(=O)Nc1cc([N+](=O)[O-])ccc1Cl`, the AC50 was > 42 µM (inactive).

As for `CCOC(=O)CSc1cc(C)nc2ccc(OC)cc12`, the AC50 was > 42 µM (inactive). In the case of `COc1cc(/C=N/NC2=NS(=O)(=O)c3ccccc32)cc(OC)c1OC`, the AC50 is > 42 µM (inactive). For `O=C(CSc1nnc(CNC(=O)c2ccco2)o1)Nc1nc2ccccc2s1`, the AC50 is > 42 µM (inactive).

As to `COc1ccc(-n2c(C)cc(C(=O)CN3C(=O)NC4(CCCc5sccc54)C3=O)c2C)cc1` (configuration not stated), the AC50 was > 42 µM (inactive). As for `Cc1cc(/C=C2\C(=O)NC(=O)N(c3ccccc3F)C2=O)c(C)n1-c1cc(C(=O)O)cc(C(=O)O)c1`, the AC50 was > 42 µM (inactive). For the molecule `N#C/C(=C\Nc1ccc2c(c1)OCCO2)c1nc2ccccc2[nH]1`, the AC50 is > 42 µM (inactive).
